Results published in patent US7687609B2, “Galectin-glycosaminoglycan complex and method for controlling galectin activity” (National Institute of Advanced Industrial Science and …, priority 2006, dated 2010).

Columns and labels:
Type in all cases: binding
[1] = system: tested galectin molecules (galectin-1, 3, 8N, 8C, 9N and 9C); test: FAC affinity test, statements on the whole panel of tested galectins; settings: Table 3, whole galectin panel
Excerpt: Using FAC, the present inventors have conducted a comprehensive analysis of the interactions between various galectin molecules (galectin-1, 3, 8N, 8C, 9N and 9C; N and C respectively represent N-terminal side carbohydrate-recognition domain and C-terminal side carbohydrate-recognition domain)-immobilized columns and various fluorescence-labeled glycosaminoglycan molecules. As a result, novel affinity was found by the combination of specific galectin molecules and glycosaminoglycan molecules to thereby accomplish the present invention.
(§1) A high performance liquid chromatography (HPLC) system was equipped with a galectin molecule-immobilized column, and the test was carried out by the method described in Nakamura S, Yagi F, Totani K, Ito γ and Hirabayashi J in FEBS J., 272, 2784-2799 (2005).
(§2) As the negative control sample, pyridyl-aminated N-acetylglucosamine (PA-GlcNAc, manufactured by Takara Bio, pyridyl-aminated glycosaminoglycan-oligosaccharide sample control) or pyridyl-aminated pullulan (prepared by carrying out pyridylamination of standard pullulan manufactured by Shodex, pyridyl-aminated glycosaminoglycan polysaccharide sample control) was used, and a V−V0 value was calculated from their eluate volume (V0 value) measured by fluorescence detection and the eluate volume (V value) of the sample, namely pyridyl-aminated glycosaminoglycan carbohydrate, and this was used as the index of interaction strength (Protein, Nucleic Acid and Enzyme, 48(8), 1206-1212 (2003)).
(§3) In this connection, when the calculated value of the V−V0 value was less than 5 μl, it was regarded as less than the interaction detection limit in this example.

[2] = molecular target: T1, Galectin-9N (Homo sapiens, UniProt O00182); test: FAC affinity test on galectin-immobilized column; settings: for V − V0 Value: pyridyl-aminated carbohydrate, galectin-9N immobilized 3.6 mg/ml, less than 5 μl = below interaction detection limit; for binding to galectin-9N (in words): text statement on the FAC results
T1 construct: N and C respectively represent N-terminal side carbohydrate-recognition domain and C-terminal side carbohydrate-recognition domain; made in house
T1 sequence (O00182 17-148 limits assumed): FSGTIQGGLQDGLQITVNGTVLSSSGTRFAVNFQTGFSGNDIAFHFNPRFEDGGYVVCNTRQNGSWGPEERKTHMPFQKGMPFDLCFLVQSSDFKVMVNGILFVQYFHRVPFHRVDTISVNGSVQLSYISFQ
Method: (§4) Various galectin molecules-immobilized columns were prepared by the method described by Nakamura S, Yagi F, Totani K, Ito γ and Hirabayashi J in FEBS J., 272, 2784-2799 (2005), using NHS Sepharose (manufactured by Amersham Bioscience) as the carrier for immobilizing galectin molecules and in accordance with the instructions attached thereto (put in parentheses is immobilization concentration, mg galectin/ml carrier).
(§5) Each galectin molecule was immobilized onto the carrier at the following concentration; galectin-1 (0.8 mg/ml), galectin-3 (0.5 mg/ml), galectin-8N (3.6 mg/ml), galectin-8C (4.0 mg/ml), galectin-9N (3.6 mg/ml), galectin-9C (3.0 mg/ml). The carrier on which each galectin was immobilized was charged into a stainless steel miniature column (2 mm in inner diameter, 10 mm in length; manufactured by Shimadzu Corp.).
as §1, §2
(§6) V−V0 values of pyridyl-aminated glycosaminoglycans (HA, CH, DN, NAH, CSA, CSB, CSC, CSD, CSE, KS-I and KS-II) were calculated based on PA-GlcNAc, and V−V0 values of pyridyl-aminated glycosaminoglycan-oligosaccharides (G2K1, G1L1, G4L4, L2L2, L2L4, L4L4, SL2L4 and CH3 to CH12) based on pyridyl-aminated pullulan, respectively.
as §3

[3] = molecular target: T2, Galectin-8N (Homo sapiens, UniProt O00214); test: FAC affinity test on galectin-immobilized column; settings: for V − V0 Value: pyridyl-aminated carbohydrate, galectin-8N immobilized 3.6 mg/ml, less than 5 μl = below interaction detection limit
T2 construct: N and C respectively represent N-terminal side carbohydrate-recognition domain and C-terminal side carbohydrate-recognition domain; made in house
T2 sequence (O00214 19-152 limits assumed): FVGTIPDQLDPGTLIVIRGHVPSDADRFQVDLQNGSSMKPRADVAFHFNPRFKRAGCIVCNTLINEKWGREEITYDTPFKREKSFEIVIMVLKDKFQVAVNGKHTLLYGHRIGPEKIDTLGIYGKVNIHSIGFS
Method: as §4, §5, §1, §2, §6, §3

[4] = molecular target: T3, Galectin-9C (Homo sapiens, UniProt O00182); test: FAC affinity test on galectin-immobilized column; settings: for V − V0 Value: pyridyl-aminated carbohydrate, galectin-9C immobilized 3.0 mg/ml, less than 5 μl = below interaction detection limit; for binding to galectin-9C (in words): text statement on the FAC results
T3 construct: N and C respectively represent N-terminal side carbohydrate-recognition domain and C-terminal side carbohydrate-recognition domain; made in house
T3 sequence (O00182 227-355 limits assumed): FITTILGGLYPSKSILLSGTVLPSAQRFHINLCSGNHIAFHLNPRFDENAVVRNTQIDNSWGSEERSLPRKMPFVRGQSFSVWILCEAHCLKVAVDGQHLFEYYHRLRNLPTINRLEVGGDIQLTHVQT
Method: as §4, §5, §1, §2, §6, §3

[5] = molecular target: T4, Galectin-1 (Homo sapiens, UniProt P09382); test: FAC affinity test on galectin-immobilized column; settings: for V − V0 Value: pyridyl-aminated carbohydrate, galectin-1 immobilized 0.8 mg/ml, less than 5 μl = below interaction detection limit; for binding to galectin-1 (in words): text statement on the FAC results
T4 construct: made in house
T4 sequence (P09382 whole entry): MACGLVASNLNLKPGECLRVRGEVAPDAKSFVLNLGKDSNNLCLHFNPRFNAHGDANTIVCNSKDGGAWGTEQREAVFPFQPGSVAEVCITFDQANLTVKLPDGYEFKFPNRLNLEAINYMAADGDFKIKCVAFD
Method: as §4, §5, §1, §2, §6, §3

[6] = molecular target: T5, Galectin-3 (Homo sapiens, UniProt P17931); test: FAC affinity test on galectin-immobilized column; settings: for V − V0 Value: pyridyl-aminated carbohydrate, galectin-3 immobilized 0.5 mg/ml, less than 5 μl = below interaction detection limit; for binding to galectin-3 (in words): text statement on the FAC results
T5 construct: made in house
T5 sequence (P17931 whole entry): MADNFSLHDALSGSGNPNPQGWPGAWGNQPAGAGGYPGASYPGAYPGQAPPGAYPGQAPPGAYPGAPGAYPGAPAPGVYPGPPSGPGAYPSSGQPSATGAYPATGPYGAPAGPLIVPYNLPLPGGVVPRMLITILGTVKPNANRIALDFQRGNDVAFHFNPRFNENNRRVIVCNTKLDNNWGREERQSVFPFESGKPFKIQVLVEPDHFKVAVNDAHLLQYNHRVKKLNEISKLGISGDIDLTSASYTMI
Method: as §4, §5, §1, §2, §6, §3

[7] = molecular target: T6, Galectin-8C (Homo sapiens, UniProt O00214); test: FAC affinity test on galectin-immobilized column; settings: pyridyl-aminated carbohydrate; galectin-8C immobilized 4.0 mg/ml; less than 5 μl = below interaction detection limit
T6 construct: N and C respectively represent N-terminal side carbohydrate-recognition domain and C-terminal side carbohydrate-recognition domain; made in house
T6 sequence (O00214 187-317 limits assumed): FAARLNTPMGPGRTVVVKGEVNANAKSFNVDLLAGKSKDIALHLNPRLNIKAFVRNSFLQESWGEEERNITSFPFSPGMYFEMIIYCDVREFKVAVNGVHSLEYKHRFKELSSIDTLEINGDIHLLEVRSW
Method: as §4, §5, §1, §2, §6, §3

Compound | binding to the tested galectin molecules (in words) [1] | V − V0 Value [2] [µL] | V − V0 Value [3] [µL] | V − V0 Value [4] [µL] | V − V0 Value [5] [µL] | V − V0 Value [6] [µL] | V − V0 Value [7] [µL] | binding to galectin-9N (in words) [2] | binding to galectin-9C (in words) [4] | binding to galectin-1 (in words) [5] | binding to galectin-3 (in words) [6] | binding to galectin-8N (in words) ([3]; text statement on the FAC results)
Hyaluronan [HA, reference compound] | did not bind | <5.0 | <5.0 | <5.0 | <5.0 | <5.0 | <5.0 | – | – | – | – | –
CC(=O)N[C@H]1[C@H](O[C@H]2[C@@H](O)[C@@H](COS(=O)(=O)O)O[C@@H](O[C@H]3[C@H](O)[C@@H](NC(C)=O)C(O)O[C@@H]3COS(=O)(=O)O)[C@@H]2O)O[C@H](COS(=O)(=O)O)[C@@H](O[C@@H]2O[C@H](CO)[C@H](O)[C@H](O)[C@H]2O)[C@@H]1O (stereo partly drawn) [L2L4, Gal β1-4 GlcNAc6S β1-3 Gal6S β1-4 GlcNAc6S] | bound to various galectin molecules | 6.6 ± 1.4 | <5.0 | 5.3 ± 0.7 | 5.8 ± 0.2 | 15.8 ± 1.8 | <5.0 | showed binding affinity | showed binding affinity | showed binding affinity | showed binding affinity | –
CC(=O)NC1C(O)OC(COS(=O)(=O)O)C(OC2OC(COS(=O)(=O)O)C(O)C(OC3OC(COS(=O)(=O)O)C(OC4OC(CO)C(O)C(OC5(C(=O)O)CC(O)C(NC(C)=O)C(C(O)C(O)CO)O5)C4O)C(O)C3NC(C)=O)C2O)C1O (stereo not drawn) [SL2L4, NeuAc α2-3 Gal β1-4 GlcNAc6S β1-3 Gal6S β1-4 GlcNAc6S] | bound to various galectin molecules | <5.0 | 26.5 ± 0.9 | <5.0 | <5.0 | 8.2 ± 0.2 | <5.0 | – | – | – | showed binding affinity | showed binding affinity
chondroitin sulfate A [CSA, reference compound] | did not bind | <5.0 | <5.0 | <5.0 | <5.0 | <5.0 | <5.0 | – | – | – | – | –
CC(=O)NC1C(O)OC(COS(=O)(=O)[O-])C(OC2OC(COS(=O)(=O)[O-])C(O)C(OC3OC(COS(=O)(=O)[O-])C(OC4OC(COS(=O)(=O)[O-])C(O)C(O)C4O)C(O)C3NC(C)=O)C2O)C1O.[Na+].[Na+].[Na+].[Na+] (stereo not drawn) [L4L4, Gal6S β1-4 GlcNAc6S β1-3 Gal6S β1-4 GlcNAc6S] | did not bind | <5.0 | <5.0 | <5.0 | <5.0 | <5.0 | <5.0 | – | – | – | – | –
Gal β1-4 GlcNAc6S β1-3 Gal β1-4 GlcNAc6S [L2L2] | bound to various galectin molecules | 8.8 ± 0.3 | <5.0 | 7.7 ± 0.4 | 6.2 ± 1.7 | 22.6 ± 1.1 | <5.0 | showed binding affinity | showed binding affinity | showed binding affinity | showed binding affinity | –
CC(=O)N[C@H]1[C@H](O[C@H]2[C@@H](O)[C@@H](CO)O[C@@H](O[C@H]3[C@H](O)[C@@H](NC(C)=O)C(O)O[C@@H]3CO)[C@@H]2O)O[C@H](CO)[C@@H](O)[C@@H]1O (stereo partly drawn) [G1L1, GlcNAc β1-3 Gal β1-4 GlcNAc] | bound to various galectin molecules | 13.6 ± 0.5 | <5.0 | <5.0 | <5.0 | 14.2 ± 1.3 | <5.0 | showed binding affinity | – | – | showed binding affinity | –
dermatan sulfate [CSB, reference compound] | did not bind | <5.0 | <5.0 | <5.0 | <5.0 | <5.0 | <5.0 | – | – | – | – | –
chondroitin sulfate D [CSD, reference compound] | did not bind | <5.0 | <5.0 | <5.0 | <5.0 | <5.0 | <5.0 | – | – | – | – | –
N-acetylheparosan [NAH, reference compound] | did not bind | <5.0 | <5.0 | <5.0 | <5.0 | <5.0 | <5.0 | – | – | – | – | –
chondroitin sulfate E [CSE, reference compound] | did not bind | <5.0 | <5.0 | <5.0 | <5.0 | <5.0 | <5.0 | – | – | – | – | –
chondroitin sulfate C [CSC, reference compound] | did not bind | <5.0 | <5.0 | <5.0 | <5.0 | <5.0 | <5.0 | – | – | – | – | –
